Laboratory results: patent US6355799B1, “Substituted benzene compounds, process for their preparation, and herbicidal and defoliant compositions containing them” (ISK Americas Incorporated, priority 1997, dated 2002)

Experiments:
Format in all cases: in vivo
[1] = test system: johnsongrass (Sorghum halepense, SORHA); assay: Pre-emerge test, greenhouse herbicide activity screening; conditions: rated 14 days after application, 0 = no damage, 100 = complete death
In short: (§1)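 Sandy loam pots; pre-emerge: sown 1 d pre-spray, surface-watered after, then bottom-watered. Post-emerge: sown 8–21 d before, 2–3 leaf stage, + 0.25% v/v NIS, bottom-watered. Acetone, 187 l/ha track spray, 15–1000 g ai/ha. 0–100 injury score, day 14.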

[2] = test system: ivyleaf morningglory (Ipomoea hederacea, IPOHE); assay: as above; conditions: rated 14 days after application, 0 = no damage, 100 = complete death
In short: as §1

[3] = test system: velvetleaf (Abutilon theophrasti, ABUTH); assay: as above; conditions: rated 14 days after application, 0 = no damage, 100 = complete death
In short: as §1

[4] = test system: sicklepod (Cassia obtusifolia, CASOB); assay: as above; conditions: rated 14 days after application, 0 = no damage, 100 = complete death
In short: as §1

[5] = test system: barnyardgrass (Echinochloa crus-galli, ECHCG); assay: as above; conditions: rated 14 days after application, 0 = no damage, 100 = complete death
In short: as §1

[6] = test system: green foxtail (Setaria viridis, SETVI); assay: as above; conditions: rated 14 days after application, 0 = no damage, 100 = complete death
In short: as §1

[7] = test system: large crabgrass (Digitaria sanguinalis, DIGSA); assay: as above; conditions: rated 14 days after application, 0 = no damage, 100 = complete death
In short: as §1

[8] = test system: common ragweed (Ambrosia artemisizfolia L., AMBEL); assay: as above; conditions: rated 14 days after application, 0 = no damage, 100 = complete death
In short: as §1

[9] = test system: lambsquarters (Chenopodium album, CHEAL); assay: as above; conditions: rated 14 days after application, 0 = no damage, 100 = complete death
In short: as §1

[10] = test system: upland rice (Oryza sp., var. Tebonnet, RICE); assay: Post-emerge test, crop safety; conditions: post-emerge, 14 days after application, rating scale 0-100
In short: as §1

[11] = test system: field corn (Zea mays L., var. Dekalb 535, CORN); assay: Post-emerge test, crop safety; conditions: post-emerge, 14 days after application, rating scale 0-100
In short: as §1

[12] = test system: redroot pigweed (Amaranthus retroflexus, AMARE); assay: Pre-emerge test, greenhouse herbicide activity screening; conditions: rated 14 days after application, 0 = no damage, 100 = complete death
In short: (§2)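 Compounds in acetone were track-sprayed at 15-1000 g ai/ha (187 l/ha) on sandy loam pots: pre-emerge one day after seeding, post-emerge at 2-3 leaf stage with 0.25% v/v non-ionic surfactant. Phytotoxicity was rated 14 days later on a 0 (no damage) to 100 (complete death) scale.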

[13] = test system: johnsongrass (Sorghum halepense, SORHA); assay: Post-emerge test, greenhouse herbicide activity screening; conditions: post-emerge, 14 days after application, rating scale 0-100
In short: as §1

[14] = test system: ivyleaf morningglory (Ipomoea hederacea, IPOHE); assay: as above; conditions: post-emerge, 14 days after application, rating scale 0-100
In short: as §1

[15] = test system: velvetleaf (Abutilon theophrasti, ABUTH); assay: as above; conditions: post-emerge, 14 days after application, rating scale 0-100
In short: as §1

[16] = test system: sicklepod (Cassia obtusifolia, CASOB); assay: as above; conditions: post-emerge, 14 days after application, rating scale 0-100
In short: as §1

[17] = test system: barnyardgrass (Echinochloa crus-galli, ECHCG); assay: as above; conditions: post-emerge, 14 days after application, rating scale 0-100
In short: as §1

[18] = test system: large crabgrass (Digitaria sanguinalis, DIGSA); assay: as above; conditions: post-emerge, 14 days after application, rating scale 0-100
In short: as §1

[19] = test system: common ragweed (Ambrosia artemisizfolia L., AMBEL); assay: as above; conditions: post-emerge, 14 days after application, rating scale 0-100
In short: as §1

[20] = test system: lambsquarters (Chenopodium album, CHEAL); assay: as above; conditions: post-emerge, 14 days after application, rating scale 0-100
In short: as §1

[21] = test system: redroot pigweed (Amaranthus retroflexus, AMARE); assay: as above; conditions: post-emerge, 14 days after application, rating scale 0-100
In short: as §1

[22] = test system: upland rice (Oryza sp., var. Tebonnet, RICE); assay: Pre-emerge test, crop safety; conditions: rated 14 days after application, 0 = no damage, 100 = complete death
In short: as §2

[23] = test system: field corn (Zea mays L., var. Dekalb 535, CORN); assay: Pre-emerge test, crop safety; conditions: rated 14 days after application, 0 = no damage, 100 = complete death
In short: as §2

## COc1c(Cl)cc(F)c(-n2c(=O)cc(C(F)(F)F)n(C)c2=O)c1NC(=O)c1ccc(OC(F)(F)F)cc1 [2-72]
[1]; 63 g ai/ha
  Pre-emerge Herbicidal Activity, phytotoxicity rating (0-100), SORHA: 0
[1]; 250 g ai/ha
  Pre-emerge Herbicidal Activity, phytotoxicity rating (0-100), SORHA: 50
[2]; 63 g ai/ha
  Pre-emerge Herbicidal Activity, phytotoxicity rating (0-100), IPOHE: 20
[2]; 250 g ai/ha
  Pre-emerge Herbicidal Activity, phytotoxicity rating (0-100), IPOHE: 20
[3]; 63 g ai/ha
  Pre-emerge Herbicidal Activity, phytotoxicity rating (0-100), ABUTH: 100
[3]; 250 g ai/ha
  Pre-emerge Herbicidal Activity, phytotoxicity rating (0-100), ABUTH: 100
[4]; 63 g ai/ha
  Pre-emerge Herbicidal Activity, phytotoxicity rating (0-100), CASOB: 30
[4]; 250 g ai/ha
  Pre-emerge Herbicidal Activity, phytotoxicity rating (0-100), CASOB: 90
[5]; 63 g ai/ha
  Pre-emerge Herbicidal Activity, phytotoxicity rating (0-100), ECHCG: 0
[5]; 250 g ai/ha
  Pre-emerge Herbicidal Activity, phytotoxicity rating (0-100), ECHCG: 50
[6]; 63 g ai/ha
  Pre-emerge Herbicidal Activity, phytotoxicity rating (0-100), SETVI: 60
[6]; 250 g ai/ha
  Pre-emerge Herbicidal Activity, phytotoxicity rating (0-100), SETVI: 100
[7]; 63 g ai/ha
  Pre-emerge Herbicidal Activity, phytotoxicity rating (0-100), DIGSA: 30
[7]; 250 g ai/ha
  Pre-emerge Herbicidal Activity, phytotoxicity rating (0-100), DIGSA: 100
[8]; 63 g ai/ha
  Pre-emerge Herbicidal Activity, phytotoxicity rating (0-100), AMBEL: 0
[8]; 250 g ai/ha
  Pre-emerge Herbicidal Activity, phytotoxicity rating (0-100), AMBEL: 50
[9]; 63 g ai/ha
  Pre-emerge Herbicidal Activity, phytotoxicity rating (0-100), CHEAL: 100
[9]; 250 g ai/ha
  Pre-emerge Herbicidal Activity, phytotoxicity rating (0-100), CHEAL: 100
[10]; 63 g ai/ha
  phytotoxicity rating RICE: 0
[10]; 250 g ai/ha
  phytotoxicity rating RICE: 20
[11]; 63 g ai/ha
  phytotoxicity rating CORN: 0
[11]; 250 g ai/ha
  phytotoxicity rating CORN: 10
[12]; 63 g ai/ha
  Pre-emerge Herbicidal Activity, phytotoxicity rating (0-100), AMARE: 100
[12]; 250 g ai/ha
  Pre-emerge Herbicidal Activity, phytotoxicity rating (0-100), AMARE: 100
[13]; 63 g ai/ha
  phytotoxicity rating SORHA: 0
[13]; 250 g ai/ha
  phytotoxicity rating SORHA: 0
[14]; 63 g ai/ha
  phytotoxicity rating IPOHE: 50
[14]; 250 g ai/ha
  phytotoxicity rating IPOHE: 60
[15]; 63 g ai/ha
  phytotoxicity rating ABUTH: 100
[15]; 250 g ai/ha
  phytotoxicity rating ABUTH: 100
[16]; 63 g ai/ha
  phytotoxicity rating CASOB: 70
[16]; 250 g ai/ha
  phytotoxicity rating CASOB: 95
[17]; 63 g ai/ha
  phytotoxicity rating ECHCG: 0
[17]; 250 g ai/ha
  phytotoxicity rating ECHCG: 0
[18]; 63 g ai/ha
  phytotoxicity rating DIGSA: 0
[18]; 250 g ai/ha
  phytotoxicity rating DIGSA: 0
[19]; 63 g ai/ha
  phytotoxicity rating AMBEL: 70
[19]; 250 g ai/ha
  phytotoxicity rating AMBEL: 60
[20]; 63 g ai/ha
  phytotoxicity rating CHEAL: 70
[20]; 250 g ai/ha
  phytotoxicity rating CHEAL: 80
[21]; 63 g ai/ha
  phytotoxicity rating AMARE: 70
[21]; 250 g ai/ha
  phytotoxicity rating AMARE: 90
[22]; 63 g ai/ha
  Pre-emerge phytotoxicity rating (0-100), crop damage, RICE: 10
[22]; 250 g ai/ha
  Pre-emerge phytotoxicity rating (0-100), crop damage, RICE: 40
[23]; 63 g ai/ha
  Pre-emerge phytotoxicity rating (0-100), crop damage, CORN: 0
[23]; 250 g ai/ha
  Pre-emerge phytotoxicity rating (0-100), crop damage, CORN: 5

## COc1c(Cl)cc(F)c(-n2c(=O)cc(C(F)(F)F)n(C)c2=O)c1N(C(=O)c1ccc(C(F)(F)F)cc1)C(=O)c1ccc(C(F)(F)F)cc1 [2-34]
[1]; 63 g ai/ha
  Pre-emerge Herbicidal Activity, phytotoxicity rating (0-100), SORHA: 20
[1]; 250 g ai/ha
  Pre-emerge Herbicidal Activity, phytotoxicity rating (0-100), SORHA: 85
[2]; 63 g ai/ha
  Pre-emerge Herbicidal Activity, phytotoxicity rating (0-100), IPOHE: 100
[2]; 250 g ai/ha
  Pre-emerge Herbicidal Activity, phytotoxicity rating (0-100), IPOHE: 100
[3]; 63 g ai/ha
  Pre-emerge Herbicidal Activity, phytotoxicity rating (0-100), ABUTH: 100
[3]; 250 g ai/ha
  Pre-emerge Herbicidal Activity, phytotoxicity rating (0-100), ABUTH: 100
[4]; 63 g ai/ha
  Pre-emerge Herbicidal Activity, phytotoxicity rating (0-100), CASOB: 100
[4]; 250 g ai/ha
  Pre-emerge Herbicidal Activity, phytotoxicity rating (0-100), CASOB: 100
[5]; 63 g ai/ha
  Pre-emerge Herbicidal Activity, phytotoxicity rating (0-100), ECHCG: 70
[5]; 250 g ai/ha
  Pre-emerge Herbicidal Activity, phytotoxicity rating (0-100), ECHCG: 99
[6]; 63 g ai/ha
  Pre-emerge Herbicidal Activity, phytotoxicity rating (0-100), SETVI: 95
[6]; 250 g ai/ha
  Pre-emerge Herbicidal Activity, phytotoxicity rating (0-100), SETVI: 100
[7]; 63 g ai/ha
  Pre-emerge Herbicidal Activity, phytotoxicity rating (0-100), DIGSA: 70
[7]; 250 g ai/ha
  Pre-emerge Herbicidal Activity, phytotoxicity rating (0-100), DIGSA: 100
[8]; 63 g ai/ha
  Pre-emerge Herbicidal Activity, phytotoxicity rating (0-100), AMBEL: 100
[8]; 250 g ai/ha
  Pre-emerge Herbicidal Activity, phytotoxicity rating (0-100), AMBEL: 100
[9]; 63 g ai/ha
  Pre-emerge Herbicidal Activity, phytotoxicity rating (0-100), CHEAL: 100
[9]; 250 g ai/ha
  Pre-emerge Herbicidal Activity, phytotoxicity rating (0-100), CHEAL: 100
[10]; 63 g ai/ha
  phytotoxicity rating RICE: 65
[10]; 250 g ai/ha
  phytotoxicity rating RICE: 85
[11]; 63 g ai/ha
  phytotoxicity rating CORN: 60
[11]; 250 g ai/ha
  phytotoxicity rating CORN: 90
[12]; 63 g ai/ha
  Pre-emerge Herbicidal Activity, phytotoxicity rating (0-100), AMARE: 100
[12]; 250 g ai/ha
  Pre-emerge Herbicidal Activity, phytotoxicity rating (0-100), AMARE: 100
[13]; 63 g ai/ha
  phytotoxicity rating SORHA: 40
[13]; 250 g ai/ha
  phytotoxicity rating SORHA: 80
[14]; 63 g ai/ha
  phytotoxicity rating IPOHE: 75
[14]; 250 g ai/ha
  phytotoxicity rating IPOHE: 95
[15]; 63 g ai/ha
  phytotoxicity rating ABUTH: 100
[15]; 250 g ai/ha
  phytotoxicity rating ABUTH: 100
[16]; 63 g ai/ha
  phytotoxicity rating CASOB: 100
[16]; 250 g ai/ha
  phytotoxicity rating CASOB: 100
[17]; 63 g ai/ha
  phytotoxicity rating ECHCG: 0
[17]; 250 g ai/ha
  phytotoxicity rating ECHCG: 30
[18]; 63 g ai/ha
  phytotoxicity rating DIGSA: 10
[18]; 250 g ai/ha
  phytotoxicity rating DIGSA: 30
[19]; 63 g ai/ha
  phytotoxicity rating AMBEL: 70
[19]; 250 g ai/ha
  phytotoxicity rating AMBEL: 85
[20]; 63 g ai/ha
  phytotoxicity rating CHEAL: 85
[20]; 250 g ai/ha
  phytotoxicity rating CHEAL: 90
[21]; 63 g ai/ha
  phytotoxicity rating AMARE: 95
[21]; 250 g ai/ha
  phytotoxicity rating AMARE: 95
[22]; 63 g ai/ha
  Pre-emerge phytotoxicity rating (0-100), crop damage, RICE: 40
[22]; 250 g ai/ha
  Pre-emerge phytotoxicity rating (0-100), crop damage, RICE: 90
[23]; 63 g ai/ha
  Pre-emerge phytotoxicity rating (0-100), crop damage, CORN: 25
[23]; 250 g ai/ha
  Pre-emerge phytotoxicity rating (0-100), crop damage, CORN: 90
